Values of other authors, collected in publication PMC6920808, “Preclinical Evaluation of UDCA-Containing Oral Formulation in Mice for the Treatment of Wet Age-Related Macular Degeneration” (Pharmaceutics, 2019).

Experiments:
[1] = tested on: laser-treated rat model; parameters: method as in PMID 20565307; details: intraperitoneally injected, ref [4]
[2] = tested on: retina; parameters: method as in earlier work; details: intravitreally injected, dose higher than 5 μg of TUDCA (5 mg/mL), Balb/C mice, ref [33]
[3] = parameters: method as in PMID 6479887, PMID 30319399; details: ref [17],[18]

Row | A- and B-wave amplitudes in the ERG and outer nuclear layer thickness [2] | pKa [3] | Structure (SMILES) | CNV size and vascularity [1] | early VEGF elevation in the retina [1]
1 | reduced |  | C[C@H](CCC(=O)NCCS(=O)(=O)O)[C@H]1CC[C@H]2[C@@H]3[C@@H](O)C[C@@H]4C[C@H](O)CC[C@]4(C)[C@H]3CC[C@]12C [TUDCA, tauroursodeoxycholic acid] | reduction | effectively suppress
2 |  | around 5.0 | C[C@H](CCC(=O)O)[C@H]1CC[C@H]2[C@@H]3[C@@H](O)C[C@@H]4C[C@H](O)CC[C@]4(C)[C@H]3CC[C@]12C [UDCA, 3α,7β-dihydroxy-5β-cholanoic acid] | reduction | effectively suppress
